Experimental data from the SangsterLogP compilation.

Assay: method code SF, from Hansch, C. & Leo, A. (1987). Log P database [Dataset]. Pomona College Medicinal Chemistry Project.
Details: not given

Row | logP | Compound
1 | 0.8 | O=c1cnc2ccccc2[nH]1
2 | 2.69 | CCC1(CC)OC(=O)c2ccccc21
3 | 1.46 | COC(=O)Cc1ccsc1
4 | 1.42 | CC1=Nc2cc([N+](=O)[O-])c(Cl)cc2S(=O)(=O)N1
5 | 1.65 | CC1=Nc2c(Br)cc(Cl)cc2S(=O)(=O)N1
6 | 2.33 | Cc1cccs1
7 | 1.81 | CC(=NO)c1ccsc1
8 | 2.47 | Cc1ccc2cccnc2c1
9 | 1.53 | CCOC(=O)C(O)c1ccccc1 (configuration not stated)
10 | -0.03 | O=C(O)c1csc(C=Cc2ccc([N+](=O)[O-])o2)n1
11 | 3.83 | O=C(Nc1ccc(Cl)c(Cl)c1)C1CC1
12 | 1.81 | O=C(NCc1ccccc1)c1ccco1
13 | 1.21 | CC1=Nc2cc(Cl)ccc2S(=O)(=O)N1
14 | 0.33 | COCCC(=O)N(C)c1ccc(S(=O)(=O)N(C)C)cc1
15 | 1.24 | [O-][n+]1ccccc1SCc1ccccc1
16 | 1.45 | O=[N+]([O-])c1ccc2[nH]c(C(O)C(O)c3nc4cc([N+](=O)[O-])ccc4[nH]3)nc2c1 (configuration not stated)
17 | 2.54 | CCOC(=O)C(=Cc1ccccc1[N+](=O)[O-])C(=O)OCC
18 | 2.48 | CCCCOc1ccc(C(N)=O)cc1
19 | 1.39 | CN(C(=O)CCI)c1ccc(S(=O)(=O)N(C)C)cc1
20 | 1.33 | c1ccc2[nH]nnc2c1
21 | 4.1 | CN(C)C(=O)Nc1ccc(OCc2ccc(Cl)cc2Cl)cc1
22 | 2.58 | O=C1Cc2ccccc2CCc2ccccc21

The next lines start with the molecule.

Row | Compound | logP
23 | CCOC(=O)C(=Cc1cccc(F)c1)C(=O)OCC | 3.19
24 | CNP(=O)(OC)Oc1ccc(Cl)cc1 (configuration not stated) | 1.85
25 | O=NN1CCOCC1 | -0.3
26 | CS(=O)(=O)Nc1cccc(NS(C)(=O)=O)c1 | 0.07
27 | CC(C)(Cc1ccccc1)NC(=O)N(CCCl)N=O | 3.73
28 | Nc1cc(OCC(=O)O)ccc1Cl | 1.16
29 | O=C(/C=C/C(=O)c1ccccc1)c1ccccc1 | 3.16
30 | COC(=O)C(=Cc1ccccc1)C(=O)OC | 2.24
31 | Cn1ncc2ccccc2c1=O | 0.61
32 | O=[N+]([O-])c1ccc(C=Cc2nccs2)o1 | 1.97
33 | CC(=O)N(c1ccccc1)S(C)(=O)=O | 0.29
34 | CC1=Nc2c([N+](=O)[O-])cc(Cl)cc2S(=O)(=O)N1 | 0.85
35 | COc1cc(C=NO)ccc1OCCO | 0.82
36 | O=C(Nc1ccccc1)c1cccnc1 | 1.73
37 | CN(C(=O)CCOS(C)(=O)=O)c1ccc(S(=O)(=O)N(C)C)cc1 | -0.68
38 | CC(=O)Nc1ccc2c(c1)S(=O)(=O)c1ccccc1C2=O | 2.35
39 | COc1cc(OCCOC(=O)c2ccccc2)ccc1C=NO | 2.94
40 | CC(=O)c1cccc(OC(=O)N(C)C)c1 | 1.18
41 | CCOP(=S)(OCC)SCS(=O)(=O)C(C)(C)C | 2.48
42 | CCOCC1CNc2nc(N)[nH]c(=O)c2N1 (configuration not stated) | -0.68
43 | O=[N+]([O-])c1cn[nH]c1 | 0.59
44 | COc1nnccc1N(C)C | 0.9
45 | O=CNc1ccccc1 | 1.2
46 | N#CN=[N+]([O-])c1cccc(C(F)(F)F)c1 | 2.52
47 | N#C/C=C/c1ccccc1 | 1.96
48 | CC(C)c1ccccc1SCc1c(O)c(C(=O)O)cc2ccccc12 | 5.06
49 | COc1cc(C=O)ccc1OCCO | 0.58
50 | O=c1[nH]c2ccccc2o1 | 1.16

Same assay, conditions: pH 1.0

Row | Compound | logD
51 | O=C(O)c1ccccc1-c1ccccc1C(=O)O | 2.07
52 | CCc1ccccc1OCC(=O)O | 2.53

Same assay, conditions: pH 7.0

Row | logD | Compound
53 | 1.27 | O=CNc1ccc(F)cc1
54 | 2.25 | COC(=O)c1ccc(C(=O)OC)cc1

Row | Compound | logD
55 | COc1ccc(C=O)cc1 | 1.61

Same assay, conditions: pH 7.3

Row | logD | Compound
56 | 1.93 | Nc1ncnc2nc(-c3cccc([N+](=O)[O-])c3)[nH]c12

Same assay, conditions: pH 7.4

Row | logD | Compound
57 | -1.74 | CC(CN1CC(=O)NC(=O)C1)N1CC(=O)NC(=O)C1 (configuration not stated)
58 | 2.39 | Cc1c(N2CCOCC2)c(=O)n(C)c(=O)n1C1CCCCC1

Continued, molecule first:

Row | Compound | logD
59 | Cc1cc(C(=O)NNCc2ccccc2)no1 | 1.49
60 | NC(=S)N/N=C/c1ccc(O)cn1 | 0.69
61 | CC(=O)NN=CCCc1ccccc1 | 1.8
62 | COc1ccc(-n2c(C)c(N(C)C)c(=O)n(C)c2=O)cc1 | 1.96
63 | CN(C)/N=N/c1ccccc1 | 2.59
64 | CCCNc1c(C)n(C)c(=O)n(-c2ccccc2)c1=O | 1.2
65 | O/N=C/CCc1ccccc1 | 1.56
66 | COc1cc2c(c(OC)c1OC)-c1ccc(SC)c(=O)cc1[C@@H](N[C@@H]1O[C@H](CO)[C@@H](O)[C@H](O)[C@H]1O)CC2 | 1.25

Same assay, conditions: pH 8.0

Row | logD | Compound
67 | 1.17 | COc1cc(S(C)=O)ccc1-c1nc2ccccc2[nH]1 (configuration not stated)

Same assay, conditions: pH 11.0

Row | Compound | logD
68 | CNC=CCCc1cccnc1 | 1.13
69 | CC(C)N(Cc1cccnc1)C(C)C | 2.27
70 | CN(C)Cc1cccnc1 | 0.49
71 | CN1CCCC[C@H]1c1cccnc1 | 0.96

Same assay, conditions: pH 13.0

Row | logD | Compound
72 | 0.85 | Cc1ccc(N2C(N)=NC(N)=NC2(C)C)cc1
73 | 2.27 | COC(OC)(OC)c1ccccc1
74 | 1.09 | CC1(C)N=C(N)N=C(N)N1c1ccc(Br)cc1
75 | -1.09 | Nc1cn[nH]c1
76 | 0.37 | CC1(C)N=C(N)N=C(N)N1c1ccc(F)cc1

Row | Compound | logD
77 | CCOc1cc(Cc2cnc(N)nc2N)cc(OCC)c1 | 2.52
